Row | Compound | melting point [°C]
1 | CCOC(=O)C1=C(C)NC(C=O)=C(C(=O)OCC)C1c1ccco1 (stereo unspecified) | 78 to 79.5
2 | CC(C)NC1=NS(=O)(=O)c2c(Cl)cccc2N1 | 144 to 146
3 | COc1ccccc1N1CCN([C@H]2Cc3c(OC)ccc(OC)c3C[C@H]2O)CC1 (relative stereo) | 213 to 216
4 | CCOC(=O)c1coc2c(OC)ccc(C(=O)Cc3c(Cl)cncc3Cl)c12 | 142 to 143
5 | COCCOc1ccc(CCC(=O)NS(=O)(=O)c2ccc(Cl)cc2)c(Oc2ncc(C(F)(F)F)cc2Cl)c1 | 140 to 142
6 | Cc1cccc(/C=C/c2nc(COc3ccc(CCCCn4ccnc4CC(O)CO)cc3)co2)c1 (stereo unspecified) | 102 to 104
7 | CCNC(=O)c1cc(NC)ccc1[Si](C)(C)C | 101 to 102
8 | CCOC(=O)c1c[nH]c2nc(N3CCN(C(C)=O)CC3)c(F)cc2c1=O | 290 to 295
9 | FC(F)(F)c1cc(Cl)c(-n2cc(C#CBr)c(C(F)(F)F)n2)c(Cl)c1 | 92 to 94
10 | NC[C@@H]1CN(c2nc3c(cc2F)c(=O)c(C(=O)O)cn3C2CC2)C[C@@H]1Cl (relative stereo) | 174 to 177
11 | CN1C(=O)CCc2cc(Cl)ccc21 | 76 to 78
12 | CC1(C)CCC(C)(C)c2cc(-c3cc4ccc(C(=O)O)cc4s3)c(Br)cc21 | 272 to 275
13 | CC(=NNC(=S)N1CC2CCC(CC2)C1)c1ccccn1 | 156
14 | COc1ccc(Cl)cc1N1CCN(CCCNC(=O)c2cccc3c(=O)c(C)c(C(N)=O)oc23)CC1 | 184 to 192
15 | C=C(C)OC(=O)N1c2ccncc2NC(=O)C1C (racemic) | 170 to 171
16 | CCOC(=O)c1ccc(OCCC2CN(c3ccc(SC)nn3)CCO2)cc1 (stereo unspecified) | 111
17 | CC(=O)Oc1c(C)c(C)c2c(c1C)CCC(C)(O)O2 (stereo unspecified) | 127 to 132
18 | CN1CCC23c4c5ccc(O[Si](C)(C)C(C)(C)C)c4OC2C(O[Si](C)(C)C(C)(C)C)C=CC3C1C5 (stereo unspecified) | 118 to 119
19 | CC(=O)OCC(=O)C1(O)CCC2C3CCC4=CC(=O)C=CC4(C)C3(F)C(O[Si](C)(C)C)CC21C (stereo unspecified) | 203 to 204

Row | Compound | melting point [°C]
20 | O=C(O)c1cn(C2CC2)c2cc(N3CCNC(c4ccco4)C3)c(F)cc2c1=O (stereo unspecified) | 176
21 | C[Si](C)(C)/C=C/c1c(N)nc(C2CC2)nc1C(=O)O | 146 to 149
22 | CCN(CC)CCN(CCN1CCCCC1)c1ccc(-c2nc3cc(Cl)c(Cl)cc3[nH]2)cc1 | 160 to 163
23 | COc1cc(C(=O)N2CCC(CCN3CCC(=C(c4ccccc4)c4ccccc4)CC3)(c3ccc(Cl)c(Cl)c3)C2)cc(OC)c1OC (stereo unspecified) | 90 to 94
24 | CCSNc1c(C#N)cnn1-c1c(Cl)cc(C(F)(F)F)cc1Cl | 157 to 158
25 | CC(C(=O)O)c1ccc(N=c2sccn2C)c(Cl)c1 (stereo unspecified) | 132 to 133
26 | CCN1C(=O)C(C(=O)Nc2cccc(C(=O)Nc3ccc(Br)cc3)c2)c2cc(C(C)=O)ccc21 (stereo unspecified) | 117 to 120
27 | CCC1CC2(C)C(O)CCC2C2CCc3cccc(O)c3C12 (stereo unspecified) | 155 to 157
28 | O=c1[nH]c2ccccc2c(=O)n1CCCN1CCC(OC(c2ccccc2)c2ccccc2)CC1 | 173 to 175
29 | CCc1nn2ccc3c(c2c1C(C)CNC(C)=O)CCO3 (stereo unspecified) | 151 to 153
30 | CCNC1=C(c2ccc(O)cc2)C(=O)c2cc(O)ccc21 | 250
31 | NC(=O)NC(=O)c1nc(Cl)c(Cl)[nH]1 | > 290
32 | COc1cc(N(C)C)c(Cl)cc1C(=O)NCC1CN(CCCOc2ccc(Cl)cc2)CCO1 (stereo unspecified) | 128 to 130
33 | O=C([C@@H]1CSCN1C(=O)c1ccncc1)N1CCSC1 | 120 to 123
34 | O=C(O)c1cc(S(=O)(=O)CCO)ccc1[N+](=O)[O-] | 165 to 167
35 | O=C(CCC1CCCC1)Nc1ccc2ncn3c(=O)c(C(=O)O)cnc3c2c1 | 279 to 283
36 | COC(=O)CCCS(=O)c1c(Cc2cccc3ccccc23)sc2c1c(=O)n(C)c(=O)n2CC(C)C (stereo unspecified) | 160 to 161
37 | CCCCSC(Cn1cncn1)c1ccc(Cl)cc1Cl (stereo unspecified) | 143
38 | Cn1c(C(F)(F)F)cc(=O)n(-c2ccc(Cl)c(C=O)c2)c1=O | 151 to 153

Row | Compound | melting point [°C]
39 | CCCCOCCOc1ccc(-c2ccc(N3CC(C)C(C)C3)c(C=C(C)C(=O)O)c2)cc1 (stereo unspecified) | 126 to 128
40 | CCCCCCCCCCCCOC(=O)c1ccc(O)c([N+](=O)[O-])c1 | 70
41 | Cc1nc2cc(Br)ccc2c(=O)n1C1CCC(=O)NC1=O (stereo unspecified) | 315 to 317
42 | CNC(=O)n1cnc(C)c1Br | 98.4 to 100
43 | Cc1c(C)c2c(c(C)c1O)CCC(C)(C#Cc1cccc(C(F)(F)F)c1)O2 (stereo unspecified) | 81 to 83
44 | CCOC(=O)c1cn(C2CC2)c2c(OC)c(F)c(F)cc2c1=O | 178 to 180
45 | COC(=O)C1CCC2C3CCC4CC(O)CCC4(C)C3C(NC(=O)OCC(Cl)(Cl)Cl)CC12C (stereo unspecified) | 140 to 143
46 | COc1cc(OC)nc(NC(=O)N=NS(=O)(=O)C2OCCN2C)n1 (stereo unspecified) | 174 to 175
47 | COc1cc(C[C@@H](NC(C)=O)C(=O)O)ccc1OC(C)=O | 174 to 175
48 | C=C(CC)C(=O)c1ccc(OCC(=O)O)c(Cl)c1 | 83.5 to 85.5
49 | CC(C)(C)c1ccc(O)cc1Cl | 65 to 67
50 | CC(C)C[C@H](NC1CCCCC1)C(=O)N1CCN(C(c2ccc(F)cc2)c2ccc(F)cc2)CC1 | 45 to 54
51 | CCOC(=O)c1nocc1O | 59 to 60
52 | COc1nc(C(F)(F)F)cc(=O)n1-c1cc(OC(C)C)c(Cl)cc1F | 117 to 119
53 | Fc1ccc2c(CCCN(c3ccncc3)c3csc4cccc(Cl)c34)noc2c1 | 135 to 136
54 | O=C(O)C=CC(=O)c1cc(Cl)c(Cl)cc1Cl | 177 to 181
55 | ClCc1ccc(Cl)nc1Cl | 115 to 130
56 | CON=C(C(=O)O)c1nc(NC=O)sc1Cl | 175 to 177

More lines, now with the values ahead:

Row | melting point [°C] | Compound
57 | 106 to 108 | COc1cc2c3ccc(OC)c(OC)c3n(C(=O)CCc3ccccc3)c2cc1OC
58 | 207 to 210 | CSc1ccc(-c2c(NN)nc(NN)nc2-c2ccccc2)cc1
59 | 118 to 121 | COc1cc2c(cc1OC)NC(=O)N(CCCN(C)CCCS(=O)(=O)c1ccccc1)CC2
60 | 259 | O=C(NNc1ccccc1)c1ccccc1O
61 | 173 to 174 | CCCc1cc(O)nc(-c2ccncc2)n1
62 | 142 to 143 | COc1cccc(-c2ccc3c(c2)C(C)(C)OC(=S)N3)c1
63 | 97 to 98 | CCOC(=O)Cc1ccc(-c2nc(COc3ccc(CO)cc3OC)c(C)o2)cc1
64 | 82 | CCOC(=O)/C(C)=C/c1ccc(Br)cc1
65 | 134 | O=C(c1ccc(F)cc1)N1CCc2cc(S(=O)(=O)N3CC(c4ccccc4)NC3=O)ccc21 (stereo unspecified)
66 | 68.5 to 71 | CCCC1COC(Cn2cncn2)(c2ccc(Oc3ccccc3)cc2)O1 (stereo unspecified)
67 | 200 to 201 | O=C(O)CCCOc1ccc2cc(-c3ccc4ccc(Cl)cc4n3)oc2c1
68 | 103 to 104 | CSc1ccc(-c2oncc2C(=O)C2CC2)nc1
69 | 76 to 78 | Cc1ccc(S(=O)(=O)Oc2cccnc2)cc1
70 | 146 to 148 | Nc1ccc2c(c1)nc(/C=C/c1ccccc1)n2-c1ccccn1
71 | 286 to 288 | O=C(O)c1cn(C2CC2)c2c(F)c(-n3cnc(-c4ccccc4)c3)c(F)cc2c1=O
72 | 192 to 193 | Nc1nc2ccccc2c2c1nc(CC1CC1)n2CCOc1ccccc1
73 | > 340 | O=C1Nc2cccnc2Nc2ncccc21
74 | 150 to 151 | CN1CCN(C2=Nc3ccccc3Oc3sc(Br)cc32)CC1
75 | 105 to 107 | COc1cccc(O[C@@H]2COc3ccc(OCc4ccccn4)cc3[C@@H]2O)c1 (relative stereo)
76 | 193 to 200 | CN1CCC2(CC1)OC(c1ccccc1)c1cc(O)ccc12 (stereo unspecified)
77 | 280 to 282 | COc1ccc(-c2c(-c3ccc(S(N)(=O)=O)cc3)[nH]c3ccccc23)cc1
78 | 275 to 277 | O=C(O)c1cccc(C(=O)Nc2cccc3cc(Br)cnc23)c1
79 | 210 to 212 | O=S(=O)(c1ccc(O)cc1)N1c2ccccc2-c2ccccc2C1c1ccccc1 (stereo unspecified)

Row | melting point [°C] | Compound
80 | 206 to 207 | COc1cc(Nc2nn(Cc3ccccc3)c(=O)c3ccccc23)cc(OC)c1OC
81 | 147 to 149 | CCOC(=O)COc1ccc(C(=O)c2ccn[nH]2)c(Cl)c1Cl
82 | 46 to 47 | Cc1nc(Cl)c(C)c(Cl)n1
83 | 117 to 119 | C[N+]([O-])=C(Cn1cncn1)c1ccccc1
84 | 247 to 280 | COc1cc2nc(N)nc(-c3ccccc3Cl)c2cc1OC
85 | 127 to 129 | Cc1cc(C(=O)N2Cc3cccn3Cc3ccccc32)ccc1C1=CCCCC1C(C)(C)C (stereo unspecified)
86 | 62 to 65 | CC(C)Cc1ccc(C(C)C(=O)OC2OC(=O)c3ccccc32)cc1 (stereo unspecified)
87 | 135 to 137 | c1ccc(-c2ccc(-c3nc4n(n3)CCCc3ccccc3-4)cc2)cc1
88 | 105 to 107 | O=Cc1nc2cc(F)ccc2s1
89 | 175 to 177 | CC(C)n1nnc(NC(=O)C(c2ccccc2)c2ccccc2)n1
90 | 211 to 213 | O=c1c2ccc3cc[nH]c3c2ccn1Cc1ccccc1
91 | 221 | Nc1nnc(-c2ccc(Cl)cc2)s1
92 | 235 | O=C(O)CNc1nc(NCc2ccc(NC(=O)c3ccc(F)cc3)cc2)c2ccccc2n1
93 | 130 to 131 | COCCOc1ccc(CC(C)C(=O)O)c(Oc2ncc(C(F)(F)F)cc2Cl)c1 (stereo unspecified)
94 | 215 to 220 | O=C(Cn1c(-c2ccc(F)cc2)ncc(NC(=O)OCc2ccccc2)c1=O)NC(Cc1ccccc1)C(=O)C1=NCCO1 (stereo unspecified)
95 | 145 | C=CCN1CCC(Nc2nc3cncnc3n2Cc2ccc(F)cc2)CC1
96 | 177 to 179 | COc1ccc(-c2nc3sccn3c2/C=C/C(=O)c2ccc[nH]2)cc1
97 | 155 to 157 | OC1CCCc2cnc3cc(OCc4ccccc4)ccc3c21 (stereo unspecified)
98 | 92 to 94 | COc1ccc(C2=NOC(CN=C=S)C2)cc1 (stereo unspecified)
99 | 110 to 112 | O=C(CNC(=O)OCc1ccccc1)ON1C(=O)CCC1=O
100 | 92 to 96 | Cc1cc(F)ccc1-c1ccc(S(=O)(=O)N2c3ccccc3CC2C(=O)NCc2ccccc2N)cc1 (stereo unspecified)
101 | 148 to 152 | Nc1ncc(-c2ccccc2)nc1Br
